Biological target: T1, human PPARγ (Homo sapiens, UniProt P37231)
T1 construct: 1.6 kb of fragment of the prepared plasmid pGEMT-hPPARg2 including human PPARγ gene; expressed in transfected cells; host or cells: CV-1 cells, transient transfection with pCI-hPPARg2, pCI-hRXRa and the reporter pGL3-PPRE3-TK
T1 sequence (P37231 1-505): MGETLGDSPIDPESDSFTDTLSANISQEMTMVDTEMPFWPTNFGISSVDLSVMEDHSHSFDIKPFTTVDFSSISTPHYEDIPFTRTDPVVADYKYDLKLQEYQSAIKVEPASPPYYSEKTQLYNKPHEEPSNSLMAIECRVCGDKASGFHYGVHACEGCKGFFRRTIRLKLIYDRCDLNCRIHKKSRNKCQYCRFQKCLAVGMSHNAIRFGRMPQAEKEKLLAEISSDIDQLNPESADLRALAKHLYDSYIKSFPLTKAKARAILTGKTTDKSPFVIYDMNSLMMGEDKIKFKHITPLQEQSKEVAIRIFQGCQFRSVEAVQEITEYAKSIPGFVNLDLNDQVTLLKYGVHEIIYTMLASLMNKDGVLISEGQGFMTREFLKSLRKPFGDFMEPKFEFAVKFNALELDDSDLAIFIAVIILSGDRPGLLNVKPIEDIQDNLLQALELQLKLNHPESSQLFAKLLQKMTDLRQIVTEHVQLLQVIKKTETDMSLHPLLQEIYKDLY
T1 sequence (P19793 1-462 partner): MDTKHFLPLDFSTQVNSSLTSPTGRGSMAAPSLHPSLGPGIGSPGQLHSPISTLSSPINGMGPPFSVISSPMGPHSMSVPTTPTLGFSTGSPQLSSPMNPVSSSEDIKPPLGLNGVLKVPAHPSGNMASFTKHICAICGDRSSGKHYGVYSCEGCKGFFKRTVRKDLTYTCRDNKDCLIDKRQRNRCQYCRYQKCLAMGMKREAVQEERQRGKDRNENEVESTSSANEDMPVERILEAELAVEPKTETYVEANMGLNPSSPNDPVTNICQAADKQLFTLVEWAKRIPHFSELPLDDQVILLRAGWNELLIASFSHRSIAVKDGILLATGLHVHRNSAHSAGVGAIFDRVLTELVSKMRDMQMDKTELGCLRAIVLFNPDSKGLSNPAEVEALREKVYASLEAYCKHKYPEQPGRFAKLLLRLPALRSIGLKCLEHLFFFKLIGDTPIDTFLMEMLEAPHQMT
Assay: Human PPARγ antagonist assay (luciferase reporter in transfected CV-1 cells)
Format: cell-based
Settings: for IC50: CV-1 cells expressing human PPARγ and RXRα with reporter plasmid, pioglitazone 1 μM as stimulant, 24 hours, read-out: Human PPARγ antagonist activities, Inhibition IC50
Procedure: CV-1 cells (96 well plate), where human PPARγ and RXRα has expressed in the transient transfection of reporter plasmid (see reference 5a) were washed once with PBS (100 μL/well), and then supplemented with 100 μL/well […], as well as pioglitazone (not limited to pioglitazone shown as an example, but may be any PPARγ agonist) at a final concentration of 1 μM as a stimulant were added, and incubated in a 5% CO2 incubator at 37° C. for 24 hours. After removing the medium, the CV-1 cells were washed once with PBS (100 μL/well), and supplemented with 60 μL/well of 1× Passive Lysis Buffer (manufactured by Promega Corporation). The CV-1 cells were incubated at room temperature for 30 minutes, stirred, and then by using Dual-Luciferase Reporter Assay System (manufactured by Promega Corporation), luciferase activities of firefly and renilla were measured using 1420 ARVO Multilabel Counter (manufactured by Wallac Oy). Also, the same experiments as that described above were respectively carried out for the cases where only the above-mentioned stimulants (100 nM, 1 μM, 10 μM) were used, where only the above-mentioned test compounds were used, or where neither was used (nonsupplemented), and luciferase activities of firefly and renilla were measured. Values corrected by dividing the firefly luciferase activities by the renilla luciferase activities were calculated as specific activities and used for evaluations.
Human PPARγ2 antagonist activities of the test compounds were evaluated by using a percentage (inhibition) where the specific activity in case only […] was added is regarded as 0% and the specific activity in case the test compound and the stimulant were not added is regarded as 100%. Moreover, the concentration of the test compound indicating the inhibition rate of 50% was calculated as the IC50 value. Also, human PPARγ2 agonist activities of the test compounds were evaluated by using a percentage (activity) where the specific activity when nonsupplemented is regarded as 0% and the specific activity in case only 10 μM stimulant was added is regarded as 100%, from the specific activity in case only the test compound is used.
CV-1 cells were cultured in DMEM medium (manufactured by Invitrogen Corporation) including 10% fetal bovine serum (manufactured by Dainippon Pharmaceutical Co., Ltd.) in 225T-Flask (manufactured by Corning Costar). The cells were detached by 0.5 g/L trypsin-0.2 g/L EDTA (ethylene diamine tetra-acetic acid) (manufactured by Invitrogen Corporation), and then suspended in the DMEM medium including 10% fetal bovine serum to a cell concentration of 2×10^5 cells/mL. Thereafter, the cells were seeded into 96 well plate at 2×10^4 cells/0.1 mL/well, incubated in the 5% CO2 incubator at 37° C. overnight, and then the plasmids prepared by the above-mentioned reference 1a, reference 3a, and reference 4a were transfected into cells by using a lipofectamine reagent (manufactured by Invitrogen Corporation) according to the attached manual.
Namely, after CV-1 cells were cultured overnight, the cells were washed with PBS (100 μL/well). Thereafter the cells were incubated for 5 hours at 37° C./5% CO2 in the MEM medium (manufactured by Invitrogen Corporation) including 430 ng/mL of human PPARγ expression plasmid (pCI-hPPARg2) prepared by the reference 1a, 430 ng/mL of human RXRα expression plasmid (pCI-hRXRa) prepared by the reference 3a, and 140 ng/mL of the reporter plasmid (pGL3-PPRE3-TK) prepared by the reference 4a, 10 ng/mL of phRL-TK vector (manufactured by Promega Corporation) and 2 μL/mL of lipofectamine.

Structure (SMILES) | IC50 [µM] | inhibition at 10 µM (at 10 μM test compound, CV-1 cells expressing human PPARγ and RXRα, pioglitazone as stimulant, read-out: Human PPARγ antagonist activities, Inhibition % at 10 μM) [%]
COc1cc(Cn2c3ccccc3c3c(OC(C)C(=O)O)cccc32)ccc1OCc1nc(-c2ccccc2)oc1C (racemic) [Example 4, (±)-2-{9-[3-methoxy-4-((5-methyl-2-phenyl-oxazole-4-yl)methoxy)-benzyl]-9H-carbazole-4-yloxy}propionic acid] | 0.939 | 
CCC(Oc1cccc2c1c1ccccc1n2Cc1ccc(OCc2nc(-c3ccccc3)oc2C)c(OC)c1)C(=O)O (racemic) [Example 5, (±)-2-{9-[3-methoxy-4-((5-methyl-2-phenyl-oxazole-4-yl)methoxy)-benzyl]-9H-carbazole-4-yloxy}butyric acid] | 0.353 | 
COc1cc(Cn2c3ccccc3c3c(OCCC(C)C(=O)O)cccc32)ccc1OCc1nc(-c2ccccc2)oc1C (racemic) [Example 27, (±)-4-{9-[3-methoxy-4-((5-methyl-2-phenyl-oxazole-4-yl)methoxy)-benzyl]-9H-carbazole-4-yloxy}-2-methyl-butyric acid] | 0.688 | 
COc1cc(Cn2c3ccccc3c3c(OC(C)C(=O)[O-])cccc32)ccc1OCc1nc(-c2ccccc2)oc1C.[Na+] (racemic) [Example 30] | 0.983 | 
COc1cc(Cn2c3ccccc3c3c(OCCC(C)C(=O)[O-])cccc32)ccc1OCc1nc(-c2ccccc2)oc1C.[Na+] (racemic) [Example 37] | 0.354 | 
COc1cc(Cn2c3ccccc3c3c(OC(C)(C)C(=O)O)cccc32)ccc1OCc1nc(-c2ccccc2)oc1C [Example 3, 2-{9-[3-methoxy-4-((5-methyl-2-phenyl-oxazole-4-yl)methoxy)-benzyl]-9H-carbazole-4-yloxy}-2-methyl-propionic acid] | 0.42 | 
COc1cc(Cn2c3ccccc3c3c(OC(C)(C)C(=O)O)cccc32)ccc1OCc1nc(-c2ccco2)oc1C [Example 7, 2-{9-[4-((2-(furan-2-yl)-5-methyl-oxazole-4-yl)methoxy)-3-methoxy-benzyl]-9H-carbazole-4-yloxy-}2-methyl-propionic acid] | 1.91 | 
COc1cc(Cn2c3ccccc3c3c(OC(C)(C)C(=O)O)cccc32)ccc1OCc1nc(-c2cccs2)oc1C [Example 8, 2-{9-[3-methoxy-4-((5-methyl-2-(thiophene-2-yl)-oxazole-4-yl)methoxy)-benzyl]-9H-carbazole-4-yloxy}-2-methyl-propionic acid] | 0.545 | 
COc1cc(Cn2c3ccccc3c3c(OC(C)(C)C(=O)O)cccc32)ccc1OCc1nc(-c2ccncc2)oc1C [Example 9, 2-{9-[3-methoxy-4-((5-methyl-2-(pyridine-4-yl)-oxazole-4-yl)methoxy)-benzyl]-9H-carbazole-4-yloxy}-2-methyl-propionic acid] | 5.14 | 
Cc1oc(-c2ccccc2)nc1COc1ccc(Cn2c3ccccc3c3c(OC(C)(C)C(=O)O)cccc32)cc1 [Example 13, 2-methyl-2-{9-[4-((5-methyl-2-phenyl-oxazole-4-yl)methoxy)-benzyl]-9H-carbazole-4-yloxy}propionic acid] | 5.87 | 
COc1cc(Cn2c3ccccc3c3c(OC(C)(C)C(=O)O)cccc32)ccc1OCc1nc(-c2ccccc2)sc1C [Example 15, 2-{9-[3-methoxy-4-((5-methyl-2-phenyl-thiazole-4-yl)methoxy)-benzyl]-9H-carbazole-4-yloxy}-2-methyl-propionic acid] | 5.98 | 
COc1cc(Cn2c3ccccc3c3c(OC(C)(C)C(=O)O)cccc32)ccc1OCc1sc(-c2ccccc2)nc1C [Example 16, 2-{9-[3-methoxy-4-((4-methyl-2-phenyl-thiazole-5-yl)methoxy)-benzyl]-9H-carbazole-4-yloxy}-2-methyl-propionic acid] |  | 38.2
COc1cc(Cn2c3ccccc3c3c(OCC(C)(C)C(=O)O)cccc32)ccc1OCc1nc(-c2ccccc2)oc1C [Example 22, 3-{9-[3-methoxy-4-((5-methyl-2-phenyl-oxazole-4-yl)methoxy)-benzyl]-9H-carbazole-4-yloxy}-2,2-dimethyl-propionic acid] | 0.122 | 
COc1cc(Cn2c3ccccc3c3c(OCC(C)(C)C(=O)O)cccc32)ccc1OCc1nc(-c2ccco2)oc1C [Example 23, 3-{9-[4-((2-(furan-2-yl)-5-methyl-oxazole-4-yl)methoxy)-3-methoxy-benzyl]-9H-carbazole-4-yloxy}-2,2-dimethyl-propionic acid] | 0.093 | 
COc1cc(Cn2c3ccccc3c3c(OCC(C)(C)C(=O)O)cccc32)ccc1OCc1nc(-c2cccs2)oc1C [Example 24, 3-{9-[3-methoxy-4-((5-methyl-2-(thiophene-2-yl)-oxazole-4-yl)methoxy)-benzyl]-9H-carbazole-4-yloxy}-2,2-dimethyl-propionic acid] | 0.071 | 
COc1cc(Cn2c3ccccc3c3c(OCC(C)(C)C(=O)O)cccc32)ccc1OCc1nc(-c2ccncc2)oc1C [Example 25, 3-{9-[3-methoxy-4-((5-methyl-2-pyridine-4-yl-oxazole-4-yl)methoxy)-benzyl]-9H-carbazole-4-yloxy}-2,2-dimethyl-propionic acid] | 0.43 | 
COc1cc(Cn2c3ccccc3c3c(OC(C)(C)C(=O)[O-])cccc32)ccc1OCc1nc(-c2ccccc2)oc1C.[Na+] [Example 28, sodium 2-{9-[3-methoxy-4-((5-methyl-2-phenyl-oxazole-4-yl)methoxy)-benzyl]-9H-carbazole-4-yloxy}-2-methyl-propionate] | 0.398 | 
CCC(Oc1cccc2c1c1ccccc1n2Cc1ccc(OCc2nc(-c3ccccc3)oc2C)c(OC)c1)C(=O)[O-].[Na+] (stereo not drawn) [Example 31] | 0.406 | 
COc1cc(Cn2c3ccccc3c3c(OC(C)(C)C(=O)[O-])cccc32)ccc1OCc1nc(-c2cccs2)oc1C.[Na+] [Example 32] | 0.422 | 
COc1cc(Cn2c3ccccc3c3c(OCC(C)(C)C(=O)[O-])cccc32)ccc1OCc1nc(-c2ccccc2)oc1C.[Na+] [Example 34] | 0.085 | 
CC[C@H](Oc1cccc2c1c1ccccc1n2Cc1ccc(OCc2nc(-c3ccccc3)oc2C)c(OC)c1)C(=O)[O-].[Na+] [Example 38, sodium (S)-(+)-2-{9-[3-methoxy-4-((5-methyl-2-phenyl-oxazole-4-yl)methoxy)-benzyl]-9H-carbazole-4-yloxy}butyrate] | 0.33 | 
